Measurements reported in US11866405B2, “Substituted indazoles as IRAK4 inhibitors” (AstraZeneca AB, priority 2020, dated 2024).
Like-named read-outs stand apart in the source and are kept apart here.

What was measured:
[1] = test system: human PBMCs stimulated with IL-1β; test: IL-1β-induced cytokine release in human PBMCs; format: cell-based; details: PBMC, 1 ng/mL IL-1β, 20 h
Description: In Vitro Effect of IRAK4 Inhibitors on LPS- and IL-1β-Induced Cytokine Release in Human PBMCs
To evaluate the effect and potency of IRAK4 inhibitors on blocking disease-relevant pathways in human primary immune cells, we stimulated human PBMCs (peripheral blood mononuclear cells) with LPS (TLR4 agonist) or IL-1β (IL-1R ligand) and measured the release of the proinflammatory cytokines IL-6 and TNF-α. Briefly, PBMCs were isolated from human blood, donated from healthy individuals, using LymphoPrep density gradient and plated at a cell density of 200 000 cells/well (for LPS assay) or 300 000 cells/well (for IL-1β assay) in 96-well culture plates. Cells were incubated for 1 h with serial dilutions of IRAK4 inhibitor or vehicle (DMSO) prior to stimulation of cells with 0.11 ng/mL LPS (derived from E. coli) or 1 ng/mL recombinant human IL-1β. After 4 h of LPS stimulation or 20 h of […] stimulation, the supernatant was collected and the levels of the proinflammatory cytokines TNF-α, IL-8 and IL-6 were measured by Mesoscale Discovery (MSD) multiplex assay. Dose-response curves were plotted and IC50 values were calculated with 4-parameter curve fit using GraphPad Prism 8 (see Table 3).

[2] = target: human recombinant IRAK4 protein (Homo sapiens (Human), UniProt Q9NWZ3); test: IRAK4 enzyme assay (mass spectrometry readout); format: biochemical; details: 3 mM ATP, 0.2 nM enzyme; geometric mean of at least n=2, * single experiment
Outline: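 0.2 nM IRAK4 preincubated 15 min at room temperature with compound (10-point half-log series, top 1 μM or 10 μM) in pH 7.4 Tris buffer with 3 mM ATP; 10 μM peptide substrate added, 2 h at room temperature, formic acid stop. Phospho/unphospho peptide ratio by LC-MS/MS; potency from curve fit, geometric mean of n≥2 or single run.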

[3] = test system: IL-1β stimulated IL-8 release in hTHP1 cells; test: IL-1β-induced IL-8 release in human THP-1 monocyte cell line; format: cell-based; details: Homo sapiens, THP-1, 18 h, THP-1 cells, IL-1β 1.8 ng/mL, geometric mean of at least n=2, * n = 1, read-out: hTHP1, IL1β stim, IL8 release red. IC50
Experimental: Effect of IRAK4 Inhibitors on IL-1β-Induced Cytokine Release in Human THP-1 Monocyte Cell Line
THP-1 cells were cultured in RPMI 1640 (Gibco 72400-021) containing 10% FBS (Gibco 10270-106), 1 mM Na-pyruvate (Gibco 11360-070) and 100 U/mL Penicillin-Streptomycin (Gibco 15140-122). Cells were plated at 5×10^4 cells per well in 384 well Echo certified plates (Labcyte PPT-0200) to which compounds had been added at various concentrations (10 point half log dose response with a final top concentration of 10 μM) using an Echo 655 (Labcyte Inc). The plate was incubated for 1 h at 37° C., then recombinant […] (R&D Systems 201-LB-025/CF) was added to a final concentration of 1.8 ng/mL. The plates were incubated at 37° C. for 18h. The plates were centrifuged at 250×g for four minutes, then 1.6 μL of the cell supernatant was transferred to a white low volume 384 well plate (Greiner #784075) using acoustic dispensing on an Echo 655. Next, 200 nL of acceptor bead (5 mg/mL) and biotinylated anti-IL-8 antibody (500 nM) was added using acoustic dispensing (beads and antibody were from a PerkinElmer 18 Alpha LISA detection kit, AL224C). The plate was sealed, briefly centrifuged, then incubated at room temperature for 1 h. Afterwards, 200 nL of donor bead solution (5 mg/mL) was added, the plate sealed and briefly centrifuged, then incubated for 1 h before being read on an Envision plate reader to allow determination the concentration of IRAK4 inhibitor required to effect a 50% reduction in the amount of IL-8 released following IL-1β stimulation in THP1 cells (Table 2). The quantified data were analysed in Genedata Screener 15 (Genedata AG). Data presented are the geometric mean of at least n=2, or as denoted by an * are obtained from a single experiment.

Sequence of human recombinant IRAK4 protein (Q9NWZ3 whole entry): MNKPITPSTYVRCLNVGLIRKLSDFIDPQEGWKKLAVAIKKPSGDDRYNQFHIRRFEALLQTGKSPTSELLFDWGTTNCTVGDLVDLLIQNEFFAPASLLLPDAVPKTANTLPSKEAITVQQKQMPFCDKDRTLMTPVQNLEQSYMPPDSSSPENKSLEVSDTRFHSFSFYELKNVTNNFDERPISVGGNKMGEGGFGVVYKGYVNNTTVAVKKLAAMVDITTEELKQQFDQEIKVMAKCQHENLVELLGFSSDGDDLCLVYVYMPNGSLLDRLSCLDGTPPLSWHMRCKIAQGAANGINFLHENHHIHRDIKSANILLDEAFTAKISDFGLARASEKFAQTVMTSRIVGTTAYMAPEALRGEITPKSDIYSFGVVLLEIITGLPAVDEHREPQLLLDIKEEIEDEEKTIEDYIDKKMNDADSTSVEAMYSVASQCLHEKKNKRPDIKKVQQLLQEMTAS

IC50 [2]: 1.1 nM
IC50 [3]: 31 nM
Structure (SMILES): COc1cc2nn([C@@H]3CC[C@@H](O)C[C@H]3C)cc2cc1C(=O)Nc1cnc2cccnn12 [Example 89, 2-((1R,2R,4R)-4-hydroxy-2-methylcyclohexyl)-N-(imidazo[1,2-b]pyridazin-3-yl)-6-methoxy-2H-indazole-5-carboxamide]
IC50 ([1]; read-out: IC50, IL-6 read-out, IL-1β stimulation): 22 nM
IC50 ([1]; read-out: IC50, IL-8 read-out, IL-1β stimulation): 30 nM
